Where “and” joins values, the source holds several entries; their conditions need not be identical. Equal entries are not always repeated.
Tests used:
[1] = system: venogenic erectile dysfunction in castrated rats; experiment: Pharmacologic cavernosometry, prevention trial in castrated rats (Experiment 2); assay type: in vivo, rat; conditions: castrated rats treated at castration, cavernosometry 9 weeks after castration
From the text: For the prevention trial of VEGF in rats with venogenic erectile ED, adult males were castrated and immediately treated with hormone, intracavernosal VEGF. […] Control animals received an silastic implant containing saline (n=3), an intracavernous injection of normal saline (n=3) or an […] transfection vector expressing lacZ reporter gene without the VEGF gene (AAV-LacZ, n=11).
(§1) A 1.5 cm oblique incision was made in the lower abdominal skin extending from the midline just above the penile hilum to below the level of the glans about 1 cm lateral to the midline. The skin was sharply dissected from the anterior surface of the penis and then the penis was retracted anteriorly using a towel clamp placed around it atraumatically with the foreskin left intact. Using blunt dissection the penile base and crura were exposed. The ischiocavernosus muscles were sharply dissected off the anterior surface of the crus until the white of the tunica albuginea of the corpora cavernosa was identified. The crus was then gently cannulated using a 23 gage butterfly needle, and saline flush with a visual erectile response was used to confirm that the needle tip was truly intracavernosal. The intracavernosal injections were then administered with either VEGF protein (Calbiochem, La Jolla, Calif. #676472) at the dosage 4 ug/injection (in 0.1 cc PBS with 0.1% BSA), AAV-VEGF (10^10 viral particles in 0.1 cc NS), AAV-LacZ (10^10 viral particles in 0.1 cc NS), or 0.1 ml NS alone. The AAV-VEGF and AAV-LacZ constructs were a generous gift from Dr. Yuet W. Kan (Howard Hughes Medical Research Institute, San Francisco, Calif.).^19,20 Following injection, the needle was left in place for 5 minutes and then removed to allow the medication to diffuse throughout the cavernosal space. Immediately thereafter, pinpoint electrocautery was applied to the needle hole for hemostasis and then the wound was closed and the animal recovered as above.
Following castration, testosterone- or saline-filled silastic implants were placed in the subcutaneous tissue of the anterior abdominal wall, as previously described.^17 Implants were prepared using sterile silastic tubing (Dow Coming, Midland, Mich. #602-265, inner diameter 0.062″) that was filled with testosterone propionate powder (Sigma Chemical, St. Louis, Mo.) with the aid of wall suction.
To perform pharmacologic cavemosometry, both the right and left crura were separately cannulated using 23 gauge butterfly needles as described above. One cannula was flushed with sterile heparinized saline (100 U heparin/ml NS) and attached to a pressure detector for continuous intracorporal pressure (ICP) monitoring as previously described.^11 The contralateral cannula was attached to an infusion pump (Harvard Pump, Southwick, Mass. #55-2222), filled with sterile dilute heparinized saline (20 U heparin/ml NS). The baseline ICP was recorded (flaccid ICP) and then a dose of papavarine (1 mg in 0.1 cc NS) was administered through the infusion cannula. Five minutes was allowed for the papavarine to diffuse throughout the corpora and then the infusion cannula was flushed with heparinized saline and the pressure monitor cannula vented to normalize ICP after flushing. After 5 minutes more, the ICP was again recorded (ICP after papavarine) and the infusion started. An infusion rate of 0.05 ml/min was started and increased (by 0.05 ml/min every 10 seconds) until the ICP started to rise. Subsequent increases in inflow rate were made only after the ICP reached a plateau pressure. By slowly adjusting the inflow rate, an intracorporal pressure of 100 cm H2O (erectile pressure) was reached and the infusion rate required to maintain this pressure recorded (the maintenance rate). After this pressure was steady for 20 seconds, the infusion was terminated and the change in ICP over the subsequent 60 seconds was recorded (the drop rate).

[2] = system: established venogenic erectile dysfunction in castrated rats; conditions: castrated rats with venous leak, 1 month following VEGF treatment
Experimental: These animals (n=8) were treated with intracavernous VEGF protein and then after one month cavernosometry repeated to measure the effect of VEGF treatment.
as §1
To perform pharmacologic cavemosometry, both the right and left crura were separately cannulated using 23 gauge butterfly needles as described above. […] The baseline ICP was recorded (flaccid ICP) and then a dose of papavarine (1 mg in 0.1 cc NS) was administered through the infusion cannula. […] After 5 minutes more, the ICP was again recorded (ICP after papavarine) and the infusion started. […] By slowly adjusting the inflow rate, an intracorporal pressure of 100 cm H2O (erectile pressure) was reached and the infusion rate required to maintain this pressure recorded (the maintenance rate). After this pressure was steady for 20 seconds, the infusion was terminated and the change in ICP over the subsequent 60 seconds was recorded (the drop rate).

[3] = system: penile smooth muscle (alpha actin); experiment: Alpha-smooth muscle actin immunohistochemistry of rat penis with image analysis; assay type: in vivo; conditions: castrated rats
Experimental: Frozen sections were cut at 10 microns, adhered to charged slides, air dried for 15 minutes then rehydrated with 0.05M PBS for 5 minutes. […] The serum solution was drained and then sections were incubated for 60 minutes with mouse monoclonal anti-alpha-smooth muscle actin (Sigma, St. Louis, Mo.) at a dilution of 1:4000 in PBS. […] Immunochemistry was performed in penile tissues from 4 rats randomly chosen from each subgroup.
Cross-sectional micrographs of the rat penis at the proximal shaft were examined after immunohistochemistry for alpha actin. Alpha actin, a marker for penile smooth muscle, stains brown and can be seen surrounding the sinusoidal spaces. […] Computerized image analysis with Adobe Photoshop was used to quantify the area of immunostaining by counting the number of digitized pixels corresponding to the area of brown staining, thereby providing some numerical comparison of the quantity of smooth muscle in each specimen.

[4] = system: major pelvic ganglia (MPG); experiment: Nerve fiber outgrowth from cultured major pelvic ganglia; assay type: cell-based, rat; set-up: Average fiber length / FIBER LENGTH (average lengths of the growing fibers): unit not given here
Experimental: Each freshly isolated MPG was cut into 8 pieces of approximately equal size and each piece was then attached to a Matrigel-coated coverslip. The MPG pieces were cultured in serum-free medium supplemented with phosphate-buffered saline (PBS, control), 50 ng/ml of vascular endothelial growth factor (VEGF), 20 ng/ml of brain-derived neurotrophic factor (BDNF), or VEGF+BDNF. After 2 days of incubation, the ganglial tissues with their outgrowing nerve fibers were stained for the expression of NADPH diaphorase and acetylcholinesterase (AchE).
We have been using several experimental systems to test the efficacy of combination growth factor therapies for impotence. One system employs cultured rat major pelvic ganglia (MPG) that are known to innervate all urogenital organs, including the penis. We discovered that the cultured MPG are able to sprout new nerve fibers (nerve regeneration) from the axonal ends during the first 3 days of culture, especially when treated with VEGF, BDNF, NT-3, or NT-4.

[5] = system: blood vessels and nerve fibers in the penis; experiment: Penile tissue histology, nNOS staining and electron microscopy (Example 9); assay type: in vivo, rat; conditions: 3 months after bilateral cavernous nerve freezing
Experimental: Three months old Sprague-Dawley rats (N=30) were used: 6 underwent a sham operation; 24 underwent bilateral cavernous nerve freezing and then randomly divided into four groups of 6 each. The four groups of rats received intracavernous injection of one of the following: 1) phosphate buffered saline (PBS), 2) VEGF protein (4 μg), 3) adeno-associated virus (AAV)-BDNF, and 4). VEGF+AAV-BDNF. Erectile function was assessed by cavernous nerve electrostimulation 3 months later and samples of penile tissue were obtained for electron microscopy and immunohistochemical studies.

[6] = system: nNOS-positive nerve fibers in dorsal and intracavernous nerves; conditions: 2 & 4 μg VEGF, week 6; not statistically significant
[7] = system: cavernous smooth muscle cells (CSMC); conditions: CSMC from rats of all ages, three days, serum-free medium
Experimental: Each primary culture of CSMC was prepared from the corpora cavernosa of 2-3 rats by the following procedure. The penis was cleared of the urethra, blood vessels, fat and connective tissue. The remaining smooth muscle tissue was washed 3 times in sterile PBS (phosphate-buffered saline) and cut into 2-3 mm^3 segments. The segments were placed evenly onto a 100-mm cell culture dish (Falcon-Becton Dickinson Labware, Franklin Lakes, N.J.) inside a cell culture hood. Approximately 10 min later, 10 ml of Dulbecco's Modified Eagle Medium (DMEM) containing penicillin (100 units/ml), streptomycin (100 μg/ml), and 10% FBS was carefully pipetted into the dish. The dish was then kept undisturbed in a humidified 37° C. incubator with 5% CO2. Five days later, tissue segments that have detached from the dish were removed, and the medium was replaced with fresh medium. Another 5 days later, all tissue segments were removed and the medium was again replaced with fresh medium. When small islands of cells were noticeable, they were trypsinized and transferred to a fresh culture dish. […]
Cell proliferation assays were performed with the CellTiter-96 kit from Promega Inc. (Madison, Wis.). […] After 4 hr of further incubation at 37° C. in the humidified, 5% CO2 incubator, color development, which reflects cell numbers, was recorded with a plate reader (Molecular Devices Corp., Sunnyvale, Calif.) at 490-nm absorbance. […]

[8] = system: cavernous smooth muscle cells (CSMC); conditions: 4 hr
Experimental: (§2) Primary aorta SMC cultures were prepared similarly with aortas isolated from 16-week-old male rats.
(§3) Cell migration assays were performed in 6.5-mm Transwell chambers of Corning Costar Corporation (Cambridge, Mass.). The Transwell inserts (upper chambers) were bathed in a solution containing 13.4 μg/ml fibronectin in PBS at 37° C. for 1 hr and allowed to air-dry. The dried upper chambers were then placed in the lower chambers, each of which contained 700 μl of serum-free DMEM supplemented with 0.1% BSA and 0 to 500 ng/ml of VEGF. SMC that had been grown to 70% confluence were further conditioned in serum-free DMEM (containing 0.1% BSA) for 2 hr and then trypsinized. The trypsinized cells were washed in PBS and resuspended at a concentration of 80,000 cells per ml in serum-free DMEM (containing 0.1% BSA). One hundred μl of the cell suspension was then added to each upper chamber. After 4 hr of incubation at 37° C., all liquid in the upper and lower chambers was removed by aspiration. The membranes in the upper chambers were subsequently fixed in 1% buffered formalin for 5 min and stained with 2% crystal violet. Non-migratory cells on the upper side of the membranes were scraped off with cotton swabs. Well locations were marked on the membranes and total cells per well were counted visually in a masked fashion. Well locations were then correlated with the concentrations of VEGF in the wells. […]

VSMC (aorta SMC) = conditions: VSMC from 16-weeks-old rats
Experimental: as §2, §3

[9] = system: Rodent Model of Neurogenic Erectile Dysfunction; conditions: VEGF 4 ug intracavernous, three months after bilateral cavernous nerve freezing
Experimental: Seventeen 3 months old Sprague Dowry rats underwent bilateral freezing of the cavernous nerves with a thermocouple immersed in liquid nitrogen. Through an abdominal incision both cavernous nerves were isolated lateral to the prostate and frozen with thermocouple for one minute twice (temperature cycle −130° C. to −3° C.). Minutes later, intracavernous injection of saline (n=7) or VEGF, 4 ug, (n=9) was given. Three months later, all rats underwent re-exploration and electrostimulation of the cavernous nerves to assess erectile function. Eight additional rats underwent exploration only (sham group)

[10] = 50 ng/ml VEGF, 20 ng/ml BDNF, 2 days of incubation

For VEGF, the “Drop Rate in 1 min.” value [1] was 9.0(+/−20) cm H2O, the “Flaccid ICP” value [1] was 27.8 cm H2O and the “ICP After Papavarine” value [1] was 85.0(+/−28) cm H2O. The “Maintenance Rate” value [1] was 0.04(+/−0.09) ml/min, the “Drop Rate in 1 min.” value [2] was 17.4 cm H2O and 17.4(+/−24) cm H2O and the “Flaccid ICP” value [2] was 25.3 cm H2O. The “ICP After Papavarine” value [2] was 84 cm H2O and 83.9 cm H2O, the “Maintenance Rate” value [2] was 0.08 ml/min and 0.08(+/−0.15) ml/min and the “quantity of penile smooth muscle, qualitative” value [3] was “returns to normal morphology”. The “pixel count of alpha actin immunostaining (quantity of smooth muscle)” value ([3]; proximal penile shaft) was 52990, the AchE staining intensity [4, 10] was 8,470±199 IDV and the NADPH staining intensity [4, 10] was 10,126±187 IDV. For the same substance, the “FIBER LENGTH (average lengths of the growing fibers)” value ([4]; 48 hours after culturing) was 89, the “nNOS positive nerve fibers in the dorsal nerves compared to PBS group” value [5] was “increased number” and the “recovery of nNOS-positive nerve fibers in dorsal and intracavernous nerves” value [6] was “moderate recovery”. The “optimal dosage of VEGF for CSMC growth rate” value [7] was 12.5 ng/mL, the “VEGF concentration of peak CSMC migration” value ([8]; CSMC from 1-week-old rats) was 1 ng/mL and the “optimal dosage of VEGF for CSMC migration” value ([8]; CSMC from young and old rats except 1-week-old) was 10 ng/mL. The “effect on migration of VSMC” value (VSMC (aorta SMC)) was “stimulated migration” and the maximal intracavernous pressure [9] was 72.78±10.87 cm H2O.
